From PMC7717712, “The effects of cardiac drugs on human erythrocyte carbonic anhydrase I and II isozymes” (Journal of Enzyme Inhibition and Medicinal Chemistry, 2020)
pIC50, pKi: −log10 of the molar value. Entries after “also recorded” stand apart in the source; their conditions may differ. Counter-ions that a name gives are not always drawn.

Legend:
[1] = target: T1, human carbonic anhydrase I (hCA I) (Homo sapiens, UniProt P00915); experiment: CO2 hydratase activity assay (Maren method), hCA I; type: biochemical
T1 construct: from tissue
Method: (§1) Blood samples (25 ml) from healthy human volunteers were collected. They were centrifuged at 1000g for 20 min at 4 °C, and the supernatant was removed. The packed erythrocytes were washed three times with 0.9% NaCl and then were hemolyzed in cold water. The pH of the hemolysate was adjusted to 8.5 with the solid Tris base. The 25-ml hemolysate was applied to an affinity column containing y Sepharose 4B-ethylene diamine-4-isothiocyanato-benzenesulfonamide[14]. CA isozymes were then eluted with 0.1 M NaCl/25 mM Na2HPO4 (pH 6.3) and 0.1 M CH3COONa/0.5 M NaClO4 (pH 5.6), which recovered hCA I and II, respectively.
(§2) CA activity was measured by the Maren method based on the determination of the time required for the pH to decrease from 10.0 to 7.4 due to CO2 hydration. The assay solution was 0.5 M Na2CO3/0.1 M NaHCO3 (pH 10.0), and phenol red was added as the pH indicator. Carbon dioxide-hydratase activity was calculated in enzyme units (EU) with the following equation: t0 – tc/tc, where t0 and tc are the times for the pH change of the nonenzymatic and the enzymatic reactions, respectively.
(§3) The drugs were triturated in a porcelain mortar pestle. Stock solutions of both drugs were prepared in dimethyl sulfoxide (DMSO). Different concentrations of the drugs were added to the enzyme activity determination medium with a total volume of 4.2 ml. The duration (in seconds) of the colour change from red to yellow in solution was measured in a 10-ml glass tube with a diameter of 1 cm. Control cuvette activity in the absence of the inhibitor was set at 100%. All compounds were tested in triplicate at each concentration used. For each inhibitor, an activity %–[inhibitor] graph was drawn (data not shown).

[2] = target: T1, human carbonic anhydrase I (hCA I); experiment: Esterase activity assay (4-nitrophenyl-acetate), hCA I; type: biochemical
Method: (§4) Blood samples (25 ml) from healthy human volunteers were collected. They were centrifuged at 1000g for 20 min at 4 °C, and the supernatant was removed. The packed erythrocytes were washed three times with 0.9% NaCl and then were hemolyzed in cold water. The pH of the hemolysate was adjusted to 8.5 with the solid Tris base. The 25-ml hemolysate was applied to an affinity column containing y Sepharose 4B-ethylene diamine-4-isothiocyanato-benzenesulfonamide[14].
(§5) The inhibitory effects of the drugs on enzyme activities were tested under in vitro conditions.

[3] = target: T2, human carbonic anhydrase II (hCA II) (Homo sapiens, UniProt P00918); experiment: CO2 hydratase activity assay (Maren method), hCA II; type: biochemical
T2 construct: from tissue
Method: as §1, §2, §3

[4] = target: T2, human carbonic anhydrase II (hCA II); experiment: Esterase activity assay (4-nitrophenyl-acetate), hCA II; type: biochemical
Method: as §4, §5

[5] = tested on: aldehyde oxidase; parameters: method as in PMID 14681337; details: read-out: aldehyde oxidase inhibition (concentration printed without endpoint name); cited from earlier work
[6] = tested on: CYP3A4; parameters: method as in earlier work; details: concentration-dependent; read-out: IC50, CYP3A4 enzyme activity; cited from earlier work
[7] = tested on: 15 hCA isoforms (hCA I–XIV); details: cited from earlier work
[8] = target: glucose-6-phosphate dehydrogenase; parameters: method as in PMID 29947262; details: cited from earlier work
[9] = tested on: CA-I levels / atherosclerosis; parameters: method as in PMID 31354482; details: cited from earlier work
[10] = hydratase method, enzyme purified from human erythrocytes, read-out: IC50 (hydratase) hCA I
[11] = esterase method, 4-nitrophenyl-acetate, 348 nm, 25 °C, read-out: IC50 (esterase) hCA I
[12] = hydratase method, enzyme purified from human erythrocytes, read-out: IC50 (hydratase) hCA II
[13] = esterase method, 4-nitrophenyl-acetate, 348 nm, 25 °C, read-out: IC50 (esterase) hCA II

T1 sequence (P00915 whole entry): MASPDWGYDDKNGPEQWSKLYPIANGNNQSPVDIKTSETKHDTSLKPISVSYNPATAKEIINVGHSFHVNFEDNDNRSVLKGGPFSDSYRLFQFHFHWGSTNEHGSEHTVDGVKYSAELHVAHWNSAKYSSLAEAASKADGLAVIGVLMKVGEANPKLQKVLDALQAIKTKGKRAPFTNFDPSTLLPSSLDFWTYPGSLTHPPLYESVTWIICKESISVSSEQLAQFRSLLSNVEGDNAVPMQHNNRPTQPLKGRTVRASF

| Compound | pIC50 [1, 10] | pIC50 [2, 11] | pIC50 [3, 12] | pIC50 [4, 13] | further results |
| --- | --- | --- | --- | --- | --- |
| CC(=O)Oc1ccccc1C(=O)O [Acetylsalicylic acid] | 3.60 | 4.37 | – | – | – |
| CCCCc1oc2ccccc2c1C(=O)c1cc(I)c(OCCN(CC)CC)c(I)c1 [Amiodorane hydrochloride] | 3.41 | 5.07 | 3.39 | 4.91 | – |
| CCOC(=O)C1=C(COCCN)NC(C)=C(C(=O)OC)C1c1ccccc1Cl (stereo not shown) [Amlodipine] | 3.88 | 4.41 | 3.90 | 4.41 | pIC50 [5]: 5.26 |
| COc1ccc(-n2nc(C(N)=O)c3c2C(=O)N(c2ccc(N4CCCCC4=O)cc2)CC3)cc1 [Apixaban] | 4.05 | 3.42 | 3.96 | 3.41 | – |
| CC(C)c1c(C(=O)Nc2ccccc2)c(-c2ccccc2)c(-c2ccc(F)cc2)n1CC[C@@H](O)C[C@@H](O)CC(=O)O [Atorvastatin] | 3.61 | 5.11 | 3.41 | 5.01 | pIC50 [6]: […]; inhibition of the 15 hCA isoforms (hCA I–XIV) [7]: submicromolar–low nanomolar inhibition |
| CC(C)NCC(O)COc1ccc(COCCOC(C)C)cc1 (stereo not shown) [Bisoprolol hemifumarate] | 3.97 | 3.81 | 3.66 | 3.61 | – |
| CCOc1nc2cccc(C(=O)OC(C)OC(=O)OC3CCCCC3)c2n1Cc1ccc(-c2ccccc2-c2nnn[nH]2)cc1 (stereo not shown) [Candesartan cilexetil] | 3.73 | 3.47 | 3.57 | 3.75 | – |
| C[C@H](CS)C(=O)N1CCC[C@H]1C(=O)O [Captopril] | 3.92 | 5.80 | 3.88 | 5.20 | – |
| COc1ccccc1OCCNCC(O)COc1cccc2[nH]c3ccccc3c12 (stereo not shown) [Carvedilol] | 4.21 | 4.69 | 4.10 | 4.33 | – |
| COC(=O)[C@H](c1ccccc1Cl)N1CCc2sccc2C1 [Clopidogrel] | 3.60 | 4.03 | 3.44 | 3.99 | – |
| CCCCCCOC(=O)NC(=N)c1ccc(NCc2nc3cc(C(=O)N(CCC(=O)OCC)c4ccccn4)ccc3n2C)cc1 [Dabigatran etexilate] | 3.95 | 4.82 | 3.94 | 4.82 | – |
| C[C@H]1O[C@@H](O[C@H]2[C@@H](O)C[C@H](O[C@H]3[C@@H](O)C[C@H](O[C@H]4CC[C@@]5(C)[C@H](CC[C@@H]6[C@@H]5C[C@@H](O)[C@]5(C)[C@@H](C7=CC(=O)OC7)CC[C@]65O)C4)O[C@@H]3C)O[C@@H]2C)C[C@H](O)[C@@H]1O [Digoxin] | 4.13 | 4.64 | 4.06 | 4.48 | – |
| COc1ccc([C@@H]2Sc3ccccc3N(CCN(C)C)C(=O)[C@@H]2OC(C)=O)cc1 [Diltiazem] | 3.20 | 3.63 | 3.32 | 3.49 | – |
| COc1cc2nc(N3CCN(C(=O)C4COc5ccccc5O4)CC3)nc(N)c2cc1OC (stereo not shown) [Doxazosin mesylate] | 3.64 | 3.52 | 3.67 | 3.38 | – |
| CN1CCc2nc(C(=O)N[C@@H]3C[C@@H](C(=O)N(C)C)CC[C@@H]3NC(=O)C(=O)Nc3ccc(Cl)cn3)sc2C1 [Edoxaban] | 4.03 | 4.34 | 4.17 | 4.47 | – |
| NS(=O)(=O)c1cc(C(=O)O)c(NCc2ccco2)cc1Cl [Furosemide] | – | – | – | – | pIC50 [8]: 3.28 |
| O=[N+]([O-])OCC(CO[N+](=O)[O-])O[N+](=O)[O-] [Glyceryl trinitrate] | – | – | – | – | pIC50 [1]: 3.66; pIC50 [3]: 3.57 |

| Compound | pIC50 [1, 10] | pIC50 [2, 11] | pIC50 [3, 12] | pIC50 [4, 13] | further results |
| --- | --- | --- | --- | --- | --- |
| CCCCC1=NC2(CCCC2)C(=O)N1Cc1ccc(-c2ccccc2-c2nnn[nH]2)cc1 [Irbesartan] | 3.63 | 3.46 | 3.62 | 3.47 | – |
| O=[N+]([O-])O[C@@H]1CO[C@H]2[C@@H]1OC[C@@H]2O [Isosorbide mononitrate] | – | – | – | – | pIC50 [1]: 3.80; pIC50 [3]: 3.80; pIC50 [2]: 5.22; pIC50 [4]: 5.26 |
| COc1cc2c(cc1OC)CC(=O)N(CCCN(C)C[C@H]1Cc3cc(OC)c(OC)cc31)CC2 [Ivabradine] | – | 3.97 | – | 3.93 | – |
| CCOC(=O)C1=C(C)NC(C)=C(C(=O)OCC)C1c1ccccc1/C=C/C(=O)OC(C)(C)C [Lacidipine] | 3.16 | 3.82 | 3.32 | 3.81 | – |
| COC(=O)C1=C(C)NC(C)=C(C(=O)OC(C)(C)CN(C)CCC(c2ccccc2)c2ccccc2)C1c1cccc([N+](=O)[O-])c1 (stereo not shown) [Lercanidipine hydrochloride] | 3.70 | 3.53 | 3.80 | 3.37 | – |
| CCN(CC)CC(=O)Nc1c(C)cccc1C [Lidocaine HCl] | 4.71 | – | 5.70 | – | – |
| COCCc1ccc(OCC(O)CNC(C)C)cc1 (stereo not shown) [Metoprolol succinate] | 3.40 | 3.50 | 3.77 | 3.48 | – |
| OC(CNCC(O)C1CCc2cc(F)ccc2O1)C1CCc2cc(F)ccc2O1 (stereo not shown) [Nebivolol hydrochloride] | 4.13 | 3.39 | 4.02 | 3.39 | – |
| CC(=O)Oc1cc2c(s1)CCN(C(C(=O)C1CC1)c1ccccc1F)C2 (stereo not shown) [Prasugrel] | 3.81 | 3.48 | 3.69 | 3.37 | – |
| CCCNCC(O)COc1ccccc1C(=O)CCc1ccccc1 (stereo not shown) [Propafenone] | 3.64 | 5.55 | 3.63 | 5.52 | Inhibition type, hCA I ([2]; Lineweaver–Burk plot): non-competitive; pKi ([2]; from Lineweaver–Burk plot): 5.62; Inhibition type, hCA II ([4]; Lineweaver–Burk plot): non-competitive; pKi ([4]; from Lineweaver–Burk plot): 5.53 |
| CC(C)NCC(O)COc1cccc2ccccc12 (stereo not shown) [Propranolol] | 5.75 | – | – | – | – |
| CCOC(=O)[C@H](CCc1ccccc1)N[C@@H](C)C(=O)N1[C@H](C(=O)O)C[C@@H]2CCC[C@@H]21 [Ramipril] | 3.55 | 4.49 | 3.81 | 4.42 | – |
| COc1ccccc1OCC(O)CN1CCN(CC(=O)Nc2c(C)cccc2C)CC1 (stereo not shown) [Ranolazine] | 3.30 | 3.22 | 3.26 | 3.19 | – |
| O=C(NC[C@H]1CN(c2ccc(N3CCOCC3=O)cc2)C(=O)O1)c1ccc(Cl)s1 [Rivaroxaban] | 3.66 | 3.72 | 3.69 | 3.61 | – |
| CCCSc1nc(N[C@@H]2C[C@H]2c2ccc(F)c(F)c2)c2nnn([C@@H]3C[C@H](OCCO)[C@@H](O)[C@H]3O)c2n1 [Ticagrelor] | 3.77 | 4.27 | 3.71 | 4.28 | – |
| COc1ccc(CN2CCNCC2)c(OC)c1OC [Trimetazidine dihydrochloride] | 3.71 | 3.95 | 3.82 | 3.95 | – |
| CC(=O)/N=c1/sc(S(N)(=O)=O)nn1C [methazolamide] | – | – | – | – | CA-I levels / CA-I expression ([9]; animal atherosclerosis model): decreased CA-I levels; also recorded: suppresses CA-I expression; atherosclerosis [9]: significantly reduces atherosclerosis |
